Data: PMC10967972, “Different Coactivator Recruitment to Human PPARα/δ/γ Ligand-Binding Domains by Eight PPAR Agonists to Treat Nonalcoholic Fatty Liver Disease” (Biomedicines, 2024)
Like-named read-outs stand apart in the source and are kept apart here.

Legend:
Assay type in all cases: biochemical
Conditions in all cases: for EC50: Buffer A
human PPARα-LBD = molecular target: T1, human PPARα-LBD (Homo sapiens, UniProt Q07869); experiment: TR-FRET coactivator recruitment assay, PPARα-LBD
T1 construct: Human PPARα-LBD [amino acids (AAs) 200–468]; made in house
T1 sequence (Q07869 200-468): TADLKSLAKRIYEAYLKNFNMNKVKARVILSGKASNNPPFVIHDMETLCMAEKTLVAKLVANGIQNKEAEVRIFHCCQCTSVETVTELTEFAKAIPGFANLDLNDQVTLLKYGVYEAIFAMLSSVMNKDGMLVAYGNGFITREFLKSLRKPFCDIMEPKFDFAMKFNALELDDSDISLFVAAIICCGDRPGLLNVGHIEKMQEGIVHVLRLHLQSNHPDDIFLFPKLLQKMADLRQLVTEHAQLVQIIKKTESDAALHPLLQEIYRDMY

human PPARδ-LBD = molecular target: T2, human PPARδ-LBD (Homo sapiens, UniProt Q03181); experiment: TR-FRET coactivator recruitment assay, PPARδ-LBD
T2 construct: PPARδ-LBD (AAs 170–441); made in house
T2 sequence (Q03181 170-441): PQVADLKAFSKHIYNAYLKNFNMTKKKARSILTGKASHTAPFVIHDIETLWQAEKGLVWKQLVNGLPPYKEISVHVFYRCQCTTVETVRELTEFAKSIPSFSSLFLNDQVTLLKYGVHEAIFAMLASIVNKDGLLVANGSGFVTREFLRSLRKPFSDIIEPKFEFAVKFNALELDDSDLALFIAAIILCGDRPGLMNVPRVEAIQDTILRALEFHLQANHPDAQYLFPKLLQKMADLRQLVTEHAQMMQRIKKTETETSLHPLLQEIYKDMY

human PPARγ-LBD = molecular target: T3, human PPARγ-LBD (Homo sapiens, UniProt P37231); experiment: TR-FRET coactivator recruitment assay, PPARγ-LBD
T3 construct: PPARγ-LBD (AAs 203–477 in isoform 1); made in house
T3 sequence (P37231 203-477 isoform P37231-2): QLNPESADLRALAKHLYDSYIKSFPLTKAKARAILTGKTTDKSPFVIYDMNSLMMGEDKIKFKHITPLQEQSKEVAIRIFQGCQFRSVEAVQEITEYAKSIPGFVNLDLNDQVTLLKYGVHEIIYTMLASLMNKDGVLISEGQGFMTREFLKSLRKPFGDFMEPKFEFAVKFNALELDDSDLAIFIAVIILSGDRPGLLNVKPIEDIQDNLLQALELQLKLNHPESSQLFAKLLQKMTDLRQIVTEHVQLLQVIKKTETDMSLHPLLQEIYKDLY

[1] = evaluated based on EC50 values, PGC, PGC1α, SRC, SRC1, TRAP, TRAP220

- EC50 (human PPARα-LBD; CBP peptide recruitment, read-out: PPARα CBP EC50): 1190 nM
- EC50 (human PPARα-LBD; PGC1α peptide recruitment, read-out: PPARα PGC1α EC50): 2050 nM
- EC50 (human PPARα-LBD; SRC1 peptide recruitment, read-out: PPARα SRC1 EC50): 1920 nM
- EC50 (human PPARα-LBD; TRAP220 peptide recruitment, read-out: PPARα TRAP220 EC50): 1840 nM
- Approximate potency order in the recruitment of four coactivators, PPARα (human PPARα-LBD; [1]): CBP>PGC>SRC=TRAP
- Emax (human PPARα-LBD; read-out: PPARα CBP % of GW7647 max response): 49.2%
- Emax (human PPARα-LBD; read-out: PPARα PGC1α % of GW7647 max response): 34.3%
- Emax (human PPARα-LBD; read-out: PPARα SRC1 % of GW7647 max response): 15.5%
- Emax (human PPARα-LBD; read-out: PPARα TRAP220 % of GW7647 max response): 11%
- EC50 (human PPARδ-LBD; CBP peptide recruitment, read-out: PPARδ CBP EC50): 46.8 nM
- EC50 (human PPARδ-LBD; PGC1α peptide recruitment, read-out: PPARδ PGC1α EC50): 31.7 nM
- EC50 (human PPARδ-LBD; SRC1 peptide recruitment, read-out: PPARδ SRC1 EC50): 74.8 nM
- EC50 (human PPARδ-LBD; TRAP220 peptide recruitment, read-out: PPARδ TRAP220 EC50): 60.7 nM
- Approximate potency order in the recruitment of four coactivators, PPARδ (human PPARδ-LBD; [1]): PGC>CBP>SRC=TRAP
- recruitment of coactivators to PPARδ-LBD (in words) (human PPARδ-LBD; four coactivator peptides): effective
- EC50 (human PPARδ-LBD; range over PGC1α, CBP, SRC1, TRAP220, read-out: EC50 values on the four coactivators, PPARδ): 31.7 to 74.8 nM
- extent of recruitment of four coactivators to PPARδ-LBD (human PPARδ-LBD; range over four coactivators, 100% = 0.1 µM GW501516): 113–146%
- Emax (human PPARδ-LBD; read-out: PPARδ CBP % of GW501516 max response): 120%
- Emax (human PPARδ-LBD; read-out: PPARδ PGC1α % of GW501516 max response): 113%
- Emax (human PPARδ-LBD; read-out: PPARδ SRC1 % of GW501516 max response): 146%
- Emax (human PPARδ-LBD; read-out: PPARδ TRAP220 % of GW501516 max response): 136%
- EC50 (human PPARγ-LBD; CBP peptide recruitment, read-out: PPARγ CBP EC50): 10700 nM
- EC50 (human PPARγ-LBD; PGC1α peptide recruitment, read-out: PPARγ PGC1α EC50): 4980 nM
- EC50 (human PPARγ-LBD; SRC1 peptide recruitment, read-out: PPARγ SRC1 EC50): 22400 nM
- EC50 (human PPARγ-LBD; TRAP220 peptide recruitment, read-out: PPARγ TRAP220 EC50): 13600 nM
- Approximate potency order in the recruitment of four coactivators, PPARγ (human PPARγ-LBD; [1]): PGC=CBP>TRAP>SRC
- Emax (human PPARγ-LBD; read-out: PPARγ CBP % of GW1929 max response): 45.9%
- Emax (human PPARγ-LBD; read-out: PPARγ PGC1α % of GW1929 max response): 49.8%
- Emax (human PPARγ-LBD; read-out: PPARγ SRC1 % of GW1929 max response): 11.9%
- Emax (human PPARγ-LBD; read-out: PPARγ TRAP220 % of GW1929 max response): 20.5%
Compound: CCO[C@H](COc1ccc(C(F)(F)F)cc1)CSc1ccc(OCC(=O)O)c(C)c1 [Seladelpar, seladelpar]
